These results are taken from US20130190487A1, “PROCESS FOR THE PREPARATION OF EZETIMIBE AND DERIVATIVES THEREOF” (KRKA, priority 2007, published 2013).

Assay type in all cases: physicochemical
Data set [1] in a line: Heating in Mettler HR73 Halogen Moisture Analyzer (LOD), then XRPD analysis. The source says: Hydrated form H of ezetimibe (from Example 30) was heated in a Mettler HR73 Halogen Moisture Analyzer. […] In all cases anhydro form of ezetimibe resulted according to XRPD analysis.
Pure S form of ezetimibe (tert.-butanol solvate; from Example 32) was heated in a Mettler HR73 Halogen Moisture Analyzer at different temperatures for the time indicated and analyzed by XRPD.

Data set [2] in a line: Drying in an air dryer, XRPD analysis. The source says:
Hydrated form H of ezetimibe was dried in an air dryer (RH was 35%) at two different temperatures.

The nature of data set [3]: Drying in a vacuum dryer, XRPD analysis. The note with it: ambient temperature, cca. 100 mbar. The protocol: Hydrated form H of ezetimibe was dried in a vacuum dryer at an ambient temperature and a pressure of cca. 100 mbar. After 1 h anhydrous form already predominated (A>H), after 2 h it became the sole form according to XRPD analysis.
The nature of data set [4]: Water sorption/desorption on automatic water sorption analyzer DVS-1. The settings on record: 25° C. The protocol: Anhydro form of ezetimibe was tested on the automatic water sorption analyzer DVS-1 (Surface Measurement Systems Ltd., London, GB) under the following conditions: • controlled room temperature (25° C.) • nitrogen flow 200 ml/min • two full cycles from 0% RH to 95% RH and back in eleven stages • minimal time per one stage (when dm/dt<0.002%) was 10 min • maximal time per one stage was 360 min.

For the molecule `O=C1[C@H](CC[C@H](O)c2ccc(F)cc2)[C@@H](c2ccc(O)cc2)N1c1ccc(F)cc1` [Hydrated form H of ezetimibe, 1-(4-fluorophenyl)-3(R)-[3-(4-fluorophenyl)-3(S)-hydroxypropyl]-4(S)-(4-hydroxyphenyl)-2-azetidinone], the “time to constant value of LOD” value in data set [1] (50° C.) amounted to 11.5 min; in data set [1] (60° C.), 6.5 min; in data set [1] (70° C.), 4.5 min. The “resulting form according to XRPD analysis” value in data set [1] (after heating at 50, 60 or 70° C. to constant LOD) is reported as “anhydro form”. Moreover, the “Constant value of LOD” value in data set [1] (heated at 50° C., 60° C. or 70° C.) was −4.5%. Also, the “form detected according to XRPD analysis” value in data set [2] (air dryer, RH 35%, 40° C., after 1 h) is “only anhydro form”. The “temperature at which converted to anhydrous form A” value in data set [2] (upon drying) is “about 40 °C”. Further, the “form according to XRPD analysis” value is reported as “A>H” in data set [3] (after 1 h) and “sole form” in data set [3] (after 2 h).

For `O=C1[C@H](CC[C@H](O)c2ccc(F)cc2)[C@@H](c2ccc(O)cc2)N1c1ccc(F)cc1` [Anhydro form of ezetimibe, 1-(4-fluorophenyl)-3(R)-[3-(4-fluorophenyl)-3(S)-hydroxypropyl]-4(S)-(4-hydroxyphenyl)-2-azetidinone], the “mass in the desorption cycle” value is “dropped sharply” in data set [4] (at 20% RH) and “not significantly changed” in data set [4] (down to 30% RH). Also, in data set [4] (first cycle, 60% RH), the “water sorption, mass change at equilibrium” value is given as 4.2%. In data set [4] (first cycle, 95% RH), the “water sorption, total” value was found to be 4.4%. The absorption of water result in data set [4] (first cycle, up to 50% RH) was “no significant absorption of water”. The water sorption result in data set [4] (second cycle, 50% RH) is listed as “increased sharply”.

For `O=C1[C@H](CC[C@H](O)c2ccc(F)cc2)[C@@H](c2ccc(O)cc2)N1c1ccc(F)cc1` [S form of ezetimibe, 1-(4-fluorophenyl)-3(R)-[3-(4-fluorophenyl)-3(S)-hydroxypropyl]-4(S)-(4-hydroxyphenyl)-2-azetidinone], the stability upon drying entry in data set [1] is on record as “stable upon drying”. In addition, the “LOD (%)” value is recorded as −0.83% in data set [1] (50 ° C., 14 min); −1.10% in data set [1] (60 ° C., 10.5 min); −2.34% in data set [1] (70 ° C., 9 min); −12.0% in data set [1] (130 ° C., 4.5 min). The loss of drying entry in data set [1] (temperature of about 70° C.) was “only minimal loss of drying”.
